Here are results for 1 compound from patent US20080206356A1, “Pharmaceutical Compositions for the Treatment of Neurodegenerative Disorders” (UNIVERSIDAD DE BARCELONA, priority 2005, published 2008).

Data set [1] relates to tau. As to the kind of experiment: tau phosphorylation (tau-1 site) in brain of STZ-diabetic rats intraperitoneally injected with tungstate. In kind it is in vivo, rat. To be noted: tungstate 50 or 75 mg/kg intraperitoneally, FIG. 3D. On the procedure: (§1) In FIG. 3 the effect of tungstate (W) on the phosphorylation of tau from brains obtained from STZ-diabetic rats is shown. A) Western blot analysis of Ser-9 phosphorylation of GSK3 in rat brain extracts from control healthy rats intraperitoneally injected with saline (Ctrl) or tungstate (W) (50 mg/kg). […] B) as in A), STZ-diabetic rats intraperitoneally injected with 50 or 75 mg/kg of tungstate. C) Western blot analysis of the phosphorylation of tau at the site recognized by the tau-1 antibody in brain extracts from control healthy rats intraperitoneally injected with saline (Ctrl) or tungstate (W) (50 mg/kg). […] D) as in C), STZ-diabetic rats intraperitoneally injected with 50 or 75 mg/kg of tungstate. The data correspond to mean values and the error bars represent the standard deviation of three to five independent experiments.
(§2) The analysis of the degree of the phosphorylation of tau and GSK3 was performed by Western blot with the antibodies mentioned above. […] The protein concentration was determined using the BCA protein assay (Pierce, Rockford, Ill.). […]

The target in data set [2] is T1, GSK3-β (Rattus norvegicus, UniProt P18266).
T1 construct: Western blot analysis of Ser-9 phosphorylation of GSK3 in rat brain extracts; from tissue; host or cells: rat brain (Wistar rats: healthy or STZ-diabetic)
T1 sequence (P18266 whole entry): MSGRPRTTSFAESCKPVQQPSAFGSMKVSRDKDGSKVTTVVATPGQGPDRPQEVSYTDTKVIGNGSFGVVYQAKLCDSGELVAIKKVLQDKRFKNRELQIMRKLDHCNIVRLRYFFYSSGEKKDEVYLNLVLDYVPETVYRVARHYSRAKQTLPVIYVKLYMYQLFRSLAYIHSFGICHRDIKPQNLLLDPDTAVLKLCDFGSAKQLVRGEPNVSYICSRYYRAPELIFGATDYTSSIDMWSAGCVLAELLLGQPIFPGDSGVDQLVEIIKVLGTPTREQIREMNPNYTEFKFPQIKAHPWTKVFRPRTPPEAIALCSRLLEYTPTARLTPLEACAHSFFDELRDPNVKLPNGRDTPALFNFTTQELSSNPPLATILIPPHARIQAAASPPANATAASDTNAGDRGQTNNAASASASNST
Description: Ser-9 phosphorylation of GSK3-β in brain of STZ-diabetic rats intraperitoneally injected with tungstate. In kind it is in vivo. As to conditions: tungstate 50 or 75 mg/kg intraperitoneally, FIG. 3B. On the procedure: as §1, §2

The target in data set [3] is T2, GSK3 (Rattus norvegicus, UniProt P18266).
T2 construct: Western blot analysis of Ser-9 phosphorylation of GSK3 in rat brain extracts; from tissue; host or cells: rat brain (Wistar rats: healthy or STZ-diabetic)
T2 sequence (P18266 whole entry): as above
Description: phosphorylation of GSK3 in brains of healthy Wistar rats intracranially injected with tungstate. In kind it is in vivo. As to conditions: intracranial 0.1 mM tungstate vs saline, FIG. 2A. How it is done:
(§3) In FIG. 2 the effect of tungstate (W) on the phosphorylation of tau in brains from healthy and insulin-resistant rats is shown. A) Western blot analysis of the phosphorylation of GSK3 (left) and tau (right) from brain extracts of healthy rats intracranially injected with saline (−) or 0.1 mM tungstate (+). Phosphorylation was measured with antibodies against Ser-9 phosphorylated GSK3-β (pS9), and tau phosphorylated at threonine 231 (AT180) or unphosphorylated at serines 198, 199 and 202 (tau-1). The total amount of GSK3 and tau was determined through the interaction with antibodies raised against GSK3 and against tau (7.51), respectively. […] Phosphorylation was measured using the antibody that reacts with Ser-9 phosphorylated GSK3-β (pS9-GSK3-β) or with the tau-1 and AT180 antibodies. The total amounts of GSK3 and tau were determined as in A. C) Insulin-resistant rats were injected intracranially with saline (−) or 0.1 mM tungstate (+), their brains were then isolated and homogenised, and Western blots of the brain proteins were performed with the tau-1, and AT180 antibodies. The total amount of tau protein was determined using the 7.51 antibody. […]
as §2

The conditions of data set [4]: cited from earlier work.
The test system of data set [5] is tau. Description: tau phosphorylation in SH-SY5Y neuroblastoma cells (Western blot, tau-1 and AT-180 antibodies). It is filed as cell-based, Human. On the procedure: (§4) In FIG. 1 the effect of tungstate (W) on GSK3-β and tau phosphorylation on SH-SY5Y neuroblastoma cells is shown. The data correspond to the mean values and the error bars represent the standard deviation of three independent experiments. A) SH-SY5Y neuroblastoma cells were incubated for 10 minutes in the presence (+) or absence (−) of 1 mM sodium tungstate and their protein extracts were then probed by Western blot with an antibody that recognizes GSK3-β phosphorylated at Ser-9 and total GSK3-β. GSK3-β phosphorylation on Ser-9 causes its inactivation (D. A: Cross et al., Nature, vol. 378, pp. 785-789). […] B) SH-SY5Y cells were incubated with increasing concentrations of tungstate and the degree of tau phosphorylation was determined by Western blot with the tau-1 antibody, which recognizes tau when the serines 198, 199 or 202 are in unphosphorylated form. […] C) SH-SY5Y cells were incubated for 10 minutes in the presence (+) or absence (−) of 1 mM sodium tungstate (W) and the degree of tau phosphorylation was determined by Western blot with the AT180 antibody, which recognizes tau when threonine 231 is in phosphorylated form. […] The total amount of tau protein was determined using the 7.51 antibody.
(§5) The analysis of the degree of the phosphorylation of tau and GSK3 was performed by Western blot with the antibodies mentioned above. […]

Data set [6] has as its target T3, GSK3-β (Homo sapiens, UniProt P49841).
T3 construct: endogenous in cells; host or cells: SH-SY5Y human neuroblastoma cells (ECACC 94030304)
Description: Ser-9 phosphorylation of GSK3-β in SH-SY5Y neuroblastoma cells (Western blot). In kind it is cell-based. To be noted: 1 mM sodium tungstate, 10 minutes, vs vehicle, FIG. 1A. How it is done:
as §4, §5

In data set [7] the test system is tau. Description: tau phosphorylation (tau-1 site) in brain of healthy rats intraperitoneally injected with tungstate. It is filed as in vivo, rat. As to conditions: tungstate 50 mg/kg intraperitoneally vs saline, FIG. 3C. On the procedure:
as §1, §2

Data set [8] concerns tau. As to the kind of experiment: phosphorylation of tau in brains of healthy Wistar rats intracranially injected with tungstate. In kind it is in vivo, rat. As to conditions: intracranial 0.1 mM tungstate vs saline, FIG. 2A. On the procedure:
as §3, §2

Data set [9] concerns the target T2, GSK3. Description: Ser-9 phosphorylation of GSK3 in brain of healthy rats intraperitoneally injected with tungstate. To be noted: tungstate 50 mg/kg intraperitoneally vs saline, FIG. 3A. In kind it is in vivo. How it is done: as §1, §2
Data set [10] deals with tau. As to the kind of experiment: phosphorylation of tau in brains of insulin-resistant (high fat diet) rats injected intraventricularly with tungstate. It is filed as in vivo, rat. As to conditions: 5 μl of 110 nM sodium tungstate intraventricularly (FIG. 2 legend: 0.1 mM), 24 hours, cortex, FIG. 2C, dihydrate. How it is done:
In FIG. 2 the effect of tungstate (W) on the phosphorylation of tau in brains from healthy and insulin-resistant rats is shown. A) Western blot analysis of the phosphorylation of GSK3 (left) and tau (right) from brain extracts of healthy rats intracranially injected with saline (−) or 0.1 mM tungstate (+). Phosphorylation was measured with antibodies against Ser-9 phosphorylated GSK3-β (pS9), and tau phosphorylated at threonine 231 (AT180) or unphosphorylated at serines 198, 199 and 202 (tau-1). The total amount of GSK3 and tau was determined through the interaction with antibodies raised against GSK3 and against tau (7.51), respectively. B) Western blot analysis of the phosphorylation in brain of GSK3-β (left) and tau (right) in control (Ctrl) and insulin-resistant (IR) rats. Phosphorylation was measured using the antibody that reacts with Ser-9 phosphorylated GSK3-β (pS9-GSK3-β) or with the tau-1 and AT180 antibodies. The total amounts of GSK3 and tau were determined as in A. C) Insulin-resistant rats were injected intracranially with saline (−) or 0.1 mM tungstate (+), their brains were then isolated and homogenised, and Western blots of the brain proteins were performed with the tau-1, and AT180 antibodies. The total amount of tau protein was determined using the 7.51 antibody. A decrease in the interaction with AT180 and an increase for that of tau-1 were observed
The analysis of the degree of the phosphorylation of tau and GSK3 was performed by Western blot with the antibodies mentioned above. Cells were homogenized at 4° C. in 50 mM 4-(2-hydroxyethyl)piperazine-1-ethanesulfonic acid (HEPES), pH 7.4, 10 mM ethylenediaminetetraacetic acid (EDTA), 0.1% 4-(1,1,3,3-tetramethylbutyl)phenyl-polyethylene glycol (triton X-100), 20 mM NaF, 0.1 mM sodium orthovanadate, 1 mM phenylmethanesulphonylfluoride, 10 μg/ml Isovaleryl-Val-Val-4-amino-3-hydroxy-6-methylheptanoyl-Ala-4-amino-3-hydroxy-6-methylheptanoic Acid (Pepstatin A); and 10 μg/ml aprotinin. The cell lysates were centrifuged at 10,000 g for 30 min at 4° C. and then heated at 100° C. for 5 min in electrophoresis sample buffer. The protein concentration was determined using the BCA protein assay (Pierce, Rockford, Ill.). Proteins were fractionated by sodium dodecylsulfate-polyacrylamide gel electrophoresis (SDS-PAGE) on 10% gels and transferred to nitrocellulose membranes (Schleicher & Schuell Bioscience, Dassel, Germany). After blocking non-specific protein binding to the membranes with 0.05% polyethylene glycol sorbitan monolaurate (Tween 20) and 5% non-fat dry milk in phosphate buffered saline (PBS), the membranes were incubated overnight with the primary antibodies in blocking buffer at 4° C. […]

Structures are written as SMILES.

T3 sequence (P49841 whole entry): as the sequence (P18266 whole entry) above, with M240V, P390T, A392T, T400A, A402T counted along it

With `O.O.[Na+].[Na+].[O]=[W](=[O])([O-])[O-]` [sodium tungstate, Sodium tungstate dihydrate], the “tau phosphorylation at the site recognized by the tau-1 antibody in brain (tau-1 / 7.51)” value in the data set with tau [1] is “decreased”; in the data set on tau [7], “no changes”. Also, on GSK3-β [2], the “Ser-9 phosphorylation of GSK3-β in brain (pS9-GSK3 / GSK3-β)” value is given as “increased”. In addition, the “phosphorylation of GSK3 (Ser-9) in brain” value at GSK3 [3] is reported as “did not observe significant changes”. In [4], the solubility in water entry is reported as “easily dissolved”. For the same compound, in the data set on tau [5] (1 mM sodium tungstate, 10 minutes, FIG. 1C), the “phosphorylation of the tau epitope recognized by AT-180 (threonine 231; ratio AT180 / 7.51)” value is listed as “decrease”. The “immunoreactivity with the tau-1 antibody (tau unphosphorylated at serines 198, 199 or 202; ratio tau1 / 7.51)” value in the data set with tau [5] (increasing concentrations of tungstate, FIG. 1B) was “significant increase”. For the same compound, the “Ser-9 phosphorylation of GSK3-β (ratio GSK3-β-pS9 / total GSK3-β)” value at GSK3-β [6] is on record as “significantly increased”. Besides, the “phosphorylation of tau (AT180, tau-1) in brain” value in the data set on tau [8] is recorded as “did not observe significant changes”. For the same compound, at GSK3 [9], the “phosphorylation of GSK3 at Ser-9 in brain (pS9-GSK3 / GSK3-β)” value is reported as “no changes”. In addition, the figures for the “amount of tau protein recognized by the tau-1 antibody in brain” value in the data set with tau [10] (listed as Tungstate) and in the data set on tau [10] (listed as tungstate) were “increased” and “increase”, respectively. Also, the “phosphorylation of tau at the epitope recognized by the AT180 antibody in brain” value was “decreased” in the data set with tau [10] (listed as Tungstate) and “decrease” with tau [10] (listed as tungstate).
